Values of other authors in US20080267939A1, “SYNERGISTIC ANTI-HYPERTENSIVE PHYTO-NUTRACEUTICAL COMPOSITION” (priority 2006, published 2008).
Blank lines part the entries; values can stand above or below the molecule they belong to.

Key:
[1] = system: bacterial resistance mechanism (multidrug pump); conditions: in the presence of 5′-MHC
[2] = system: aged diabetic Zucker fatty rats
blood pressure [3] = conditions: lower doses
[4] = system: patients having class III or IV cardiomiopathy; conditions: group A, during CoQ10 treatment, oral
[5] = biological target: platelet activating factor (PAF) membrane receptors (Homo sapiens, UniProt P25105)
Sequence of platelet activating factor (PAF) membrane receptors (P25105 whole entry): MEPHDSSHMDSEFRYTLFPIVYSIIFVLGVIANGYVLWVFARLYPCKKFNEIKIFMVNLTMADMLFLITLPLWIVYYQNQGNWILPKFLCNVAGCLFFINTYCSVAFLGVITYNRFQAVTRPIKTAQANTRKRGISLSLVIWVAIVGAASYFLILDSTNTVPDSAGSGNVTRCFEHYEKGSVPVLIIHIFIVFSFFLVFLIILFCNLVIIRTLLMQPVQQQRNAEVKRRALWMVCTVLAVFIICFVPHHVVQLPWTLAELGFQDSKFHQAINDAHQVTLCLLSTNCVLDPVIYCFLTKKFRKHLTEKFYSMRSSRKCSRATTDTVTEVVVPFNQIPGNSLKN

[6] = biological target: T1, endothelial NO synthase (eNOS) (Homo sapiens, UniProt P29474)
T1 sequence (P29474 1-1203): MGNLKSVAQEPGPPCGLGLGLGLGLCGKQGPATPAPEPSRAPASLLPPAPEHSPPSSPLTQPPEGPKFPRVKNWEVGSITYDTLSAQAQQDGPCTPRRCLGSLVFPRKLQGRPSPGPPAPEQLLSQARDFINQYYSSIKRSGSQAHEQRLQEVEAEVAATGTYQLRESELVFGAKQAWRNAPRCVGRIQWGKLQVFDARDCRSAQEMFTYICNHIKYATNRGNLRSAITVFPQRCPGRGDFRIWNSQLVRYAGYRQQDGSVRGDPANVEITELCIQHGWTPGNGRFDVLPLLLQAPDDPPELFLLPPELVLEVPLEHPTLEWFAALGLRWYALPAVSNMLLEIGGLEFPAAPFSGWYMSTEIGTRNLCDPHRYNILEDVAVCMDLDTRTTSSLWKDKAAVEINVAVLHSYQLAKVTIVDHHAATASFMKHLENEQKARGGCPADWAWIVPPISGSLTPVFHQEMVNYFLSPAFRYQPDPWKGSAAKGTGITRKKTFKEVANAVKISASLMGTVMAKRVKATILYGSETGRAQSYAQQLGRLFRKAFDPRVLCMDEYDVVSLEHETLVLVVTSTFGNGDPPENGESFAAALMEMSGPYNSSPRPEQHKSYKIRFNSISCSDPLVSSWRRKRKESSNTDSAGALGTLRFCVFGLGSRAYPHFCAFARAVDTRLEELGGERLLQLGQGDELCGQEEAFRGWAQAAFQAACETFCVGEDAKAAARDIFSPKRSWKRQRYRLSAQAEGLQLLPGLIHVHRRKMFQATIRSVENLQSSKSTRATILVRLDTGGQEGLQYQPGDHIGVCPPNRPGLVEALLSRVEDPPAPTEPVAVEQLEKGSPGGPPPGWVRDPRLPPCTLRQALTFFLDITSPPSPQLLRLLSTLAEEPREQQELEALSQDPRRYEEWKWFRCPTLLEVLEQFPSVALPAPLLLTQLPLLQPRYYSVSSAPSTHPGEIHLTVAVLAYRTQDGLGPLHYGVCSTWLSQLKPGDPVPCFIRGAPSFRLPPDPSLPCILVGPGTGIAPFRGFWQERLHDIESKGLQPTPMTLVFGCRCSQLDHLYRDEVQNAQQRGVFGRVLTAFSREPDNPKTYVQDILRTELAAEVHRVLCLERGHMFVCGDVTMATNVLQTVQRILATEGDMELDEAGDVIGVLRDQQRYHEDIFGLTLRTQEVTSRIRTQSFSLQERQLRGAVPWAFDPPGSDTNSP

blood pressure [7] = conditions: in vivo
renal hypertensive dogs = conditions: chronic oral administration
rabbit aortic rings = conditions: pre-contracted rabbit aortic rings
rat aorta [8] = conditions: endothelium-intact and endothelium-denuded rat aorta
L-type calcium channel [9] = biological target: T2, L-type calcium channel (Cavia porcellus, UniProt O35505); conditions: isolated guinea pig ventricular myocytes
T2 construct: calcium channel in isolated guinea pig ventricular myocytes; endogenous in cells; host or cells: isolated guinea pig ventricular myocytes
T2 sequence (O35505 whole entry): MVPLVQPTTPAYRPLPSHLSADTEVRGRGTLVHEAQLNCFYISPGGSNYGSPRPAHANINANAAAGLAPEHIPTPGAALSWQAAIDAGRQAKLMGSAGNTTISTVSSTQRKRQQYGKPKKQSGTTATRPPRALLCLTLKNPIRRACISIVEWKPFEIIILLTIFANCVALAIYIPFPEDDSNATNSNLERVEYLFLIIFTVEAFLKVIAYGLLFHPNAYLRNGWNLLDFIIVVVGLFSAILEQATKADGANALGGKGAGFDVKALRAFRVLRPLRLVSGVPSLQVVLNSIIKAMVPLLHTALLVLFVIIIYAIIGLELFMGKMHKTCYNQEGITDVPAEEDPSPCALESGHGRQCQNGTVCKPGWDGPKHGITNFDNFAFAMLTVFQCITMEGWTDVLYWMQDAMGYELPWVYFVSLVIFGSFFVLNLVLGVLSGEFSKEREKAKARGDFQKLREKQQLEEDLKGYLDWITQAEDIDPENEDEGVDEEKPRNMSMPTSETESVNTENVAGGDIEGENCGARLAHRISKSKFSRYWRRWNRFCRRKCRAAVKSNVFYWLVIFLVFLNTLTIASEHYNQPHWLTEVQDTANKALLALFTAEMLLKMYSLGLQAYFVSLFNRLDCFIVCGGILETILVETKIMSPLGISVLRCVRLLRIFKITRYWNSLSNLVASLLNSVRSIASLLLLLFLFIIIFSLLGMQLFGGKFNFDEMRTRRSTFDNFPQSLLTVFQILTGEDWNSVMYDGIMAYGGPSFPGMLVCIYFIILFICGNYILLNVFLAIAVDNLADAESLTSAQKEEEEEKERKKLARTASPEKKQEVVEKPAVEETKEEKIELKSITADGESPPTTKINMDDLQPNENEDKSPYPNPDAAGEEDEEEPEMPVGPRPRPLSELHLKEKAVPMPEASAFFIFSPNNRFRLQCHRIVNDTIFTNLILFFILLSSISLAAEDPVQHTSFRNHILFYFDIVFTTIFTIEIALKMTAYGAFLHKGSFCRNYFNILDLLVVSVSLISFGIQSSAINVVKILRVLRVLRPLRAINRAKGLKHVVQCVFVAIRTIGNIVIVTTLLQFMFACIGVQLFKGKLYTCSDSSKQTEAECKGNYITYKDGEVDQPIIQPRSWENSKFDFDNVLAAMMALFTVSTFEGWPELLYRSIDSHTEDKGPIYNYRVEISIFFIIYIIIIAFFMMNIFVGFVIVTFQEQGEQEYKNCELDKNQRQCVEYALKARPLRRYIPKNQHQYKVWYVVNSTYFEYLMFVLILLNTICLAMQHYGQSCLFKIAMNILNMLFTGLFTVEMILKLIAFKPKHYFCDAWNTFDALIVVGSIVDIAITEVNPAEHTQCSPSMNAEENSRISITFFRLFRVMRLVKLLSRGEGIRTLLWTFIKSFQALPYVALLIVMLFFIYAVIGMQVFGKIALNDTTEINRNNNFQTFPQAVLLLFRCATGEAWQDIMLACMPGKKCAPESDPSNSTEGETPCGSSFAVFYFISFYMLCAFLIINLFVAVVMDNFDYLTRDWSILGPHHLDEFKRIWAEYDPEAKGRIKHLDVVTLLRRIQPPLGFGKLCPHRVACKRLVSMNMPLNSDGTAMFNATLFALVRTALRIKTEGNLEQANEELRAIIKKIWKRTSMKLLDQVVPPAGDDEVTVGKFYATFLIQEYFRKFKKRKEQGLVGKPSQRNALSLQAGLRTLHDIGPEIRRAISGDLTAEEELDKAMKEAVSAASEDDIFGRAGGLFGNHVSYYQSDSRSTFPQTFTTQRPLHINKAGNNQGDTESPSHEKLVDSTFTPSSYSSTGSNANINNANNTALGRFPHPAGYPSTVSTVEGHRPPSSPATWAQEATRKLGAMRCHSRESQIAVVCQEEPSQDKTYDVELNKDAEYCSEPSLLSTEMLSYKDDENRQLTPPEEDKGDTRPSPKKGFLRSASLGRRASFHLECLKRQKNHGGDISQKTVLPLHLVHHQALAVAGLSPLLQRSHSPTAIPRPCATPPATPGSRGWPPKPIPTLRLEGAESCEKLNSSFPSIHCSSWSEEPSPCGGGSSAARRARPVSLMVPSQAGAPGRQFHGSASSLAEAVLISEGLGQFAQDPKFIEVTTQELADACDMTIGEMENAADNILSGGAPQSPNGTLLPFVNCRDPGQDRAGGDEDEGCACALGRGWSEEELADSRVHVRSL

[10] = system: vascular smooth muscle cells
blood pressure [11] = conditions: clinically
L-type calcium channel [12] = biological target: T3, L-type calcium channel (Rattus norvegicus, UniProt P22002); conditions: rat ventricular myocytes
T3 construct: Effect of puerarin on L-type calcium channel in isolated rat ventricular myocytes; endogenous in cells; host or cells: isolated rat ventricular myocytes

[13] = system: spontaneously hypertensive rats
[14] = system: vascular smooth muscle cells; remark: listed apart in the source
rat aorta [15] = system: rat aorta

Molecule: COc1cc([C@H]2Oc3cc(-c4cc(=O)c5c(O)cc(O)cc5o4)cc(OC)c3O[C@@H]2CO)ccc1O (racemic) [5′-MHC, 5′-methoxyhydnocarpin]
accumulation of berberine in the cells [1]: strong increase

Molecule: O=C(O)CC(O)(C(=O)O)C(O)C(=O)O (single isomer, unassigned; (-)) [(−)-hydroxycitric acid (HCA), (−)-hydroxycitric acid]
blood pressures compared to control [2]: significantly lowered blood pressures

Molecule: CCCCC[C@H](O)CC(=O)CCc1ccc(O)c(OC)c1 [(6)-gingerol]
response on the blood pressure (blood pressure [3]): produced depressor response

Molecule: CCCCC/C=C/C(=O)CCc1ccc(O)c(OC)c1 [(6)-shogaol]
response on the blood pressure (blood pressure [3]): produced depressor response

Molecule: COC1=C(OC)C(=O)C(C/C=C(\C)CC/C=C(\C)CC/C=C(\C)CC/C=C(\C)CC/C=C(\C)CC/C=C(\C)CC/C=C(\C)CC/C=C(\C)CC/C=C(\C)CCC=C(C)C)=C(C)C1=O [CoQ10, Coenzyme Q10]
cardiac function [4]: significant increases in cardiac function

inhibition of platelet activating factor (PAF) [5]: powerful inhibitor
Molecule: CC1C(=O)OC2C(O)C34C5CC(C(C)(C)C)C36C(OC(=O)C6O)OC4(C(=O)O5)C12O (centres unmarked) [Ginkgolide B]

Molecule: CC(C)=CCC[C@](C)(O[C@@H]1O[C@H](CO)[C@@H](O)[C@H](O)[C@H]1O)[C@H]1CC[C@]2(C)[C@@H]1[C@H](O)C[C@@H]1[C@@]3(C)CC[C@H](O)C(C)(C)[C@@H]3[C@@H](O[C@@H]3O[C@H](CO)[C@@H](O)[C@H](O)[C@H]3O[C@@H]3O[C@@H](C)[C@H](O)[C@@H](O)[C@H]3O)C[C@]12C [Ginsenoside Re]
eNOS activation / NO release [6]: activate endothelial NO synthase (eNOS) to release NO

Molecule: C[C@@H]1O[C@@H](O[C@@H]2[C@@H](O)[C@H](OCCc3ccc(O)c(O)c3)O[C@H](CO)[C@H]2OC(=O)/C=C/c2ccc(O)c(O)c2)[C@H](O[C@@H]2OC[C@@H](O)[C@@H](O)[C@@H]2O)[C@H](O)[C@H]1O [Lavandulifolioside]
blood pressure (blood pressure [7]): decreases blood pressure

Molecule: O=C(O)CC[N+](=O)[O-] [NPA, 3-Nitropropionic acid]
blood pressure (renal hypertensive dogs): decrease in blood pressure
relaxation of aortic rings (rabbit aortic rings): dose-dependent relaxation

Molecule: O=c1c(-c2ccc(O)cc2)coc2c([C@@H]3O[C@H](CO)[C@@H](O)[C@H](O)[C@H]3O)c(O)ccc12 [Puerarin, puerarin]
contractions induced by phenylephrine (rat aorta [8]): completely relaxed
NO concentration and blood pressure (rats with pre-eclampsia): elevate the level of NO concentration and decrease blood pressure
effect on L-type calcium channel (L-type calcium channel [9]): blocking effect on L-type calcium channel in a concentration dependent manner
decrease of blood pressure (laboratory animals): 15%
proliferation and DNA synthesis of vascular smooth muscle cells [10]: suppress
systolic and diastolic blood pressure (blood pressure [11]): reduces both systolic and diastolic blood pressure
L-type calcium current (L-type calcium channel [12]): inhibit L-type calcium current

Molecule: COc1cc(/C=C/C(=O)O)ccc1O [ferulic acid]
carotid arterial pressure ([13]; intravenous injection, anesthetized hypertensive rats): dose dependently reduced
systolic blood pressure ([13]; oral administration, hypertensive rats): significantly decreased

Molecule: CCC/C=C1\OC(=O)C2=C1CCC=C2 [ligustilide]
vascular smooth muscle cells proliferation and cell cycle progression [14]: significantly inhibited

Molecule: Cycloleonuripeptide E
vasorelaxant effects (rat aorta [15]): moderate vasorelaxant effects

Molecule: cycloleonuripeptide F
vasorelaxant effects (rat aorta [15]): moderate vasorelaxant effects

Molecule: niacin-bound chromium
blood pressures compared to control [2]: significantly lowered blood pressures
